Results from patent US8153360B2, “Flavivirus fusion inhibitors” (The Administrators of the Tulane Educational Fund, priority 2002, dated 2012).

Tests used:
[1] = test system: H77-E1E2 pseudotype expressing envelope glycoproteins E1 and E2 of the H77 strain of HCV; experiment: HCV pseudotype infectivity, luciferase activity of cell lysates; format: cell-based, hepatitis C virus; conditions: peptide about 25 μM (asterisked peptides 10 μM or less); for H77-E1E2 number of luciferase units (lumens) produced after infection: 72 h at 37° C., vehicle 113,733; for Percent Inhibition (H77-E1E2 HCV pseudotype infectivity): relative to DMSO vehicle
[2] = test system: pseudotype expressing the envelope glycoprotein of murine leukemia virus (MLV); experiment: MLV pseudotype infectivity, luciferase activity (peptide/cytotoxicity control); format: cell-based; conditions: peptide about 25 μM (asterisked peptides 10 μM or less); for MLV number of luciferase units (lumens) produced after infection: 72 h at 37° C., vehicle 439,158; for Percent inhibition (MLV pseudotype infectivity): relative to DMSO vehicle
HIV-1 [3] = conditions: cited from earlier work
HIV-1 [4] = conditions: preliminary results from phase III clinical trials; cited from earlier work

Substance | H77-E1E2 number of luciferase units (lumens) produced after infection [1] | MLV number of luciferase units (lumens) produced after infection [2] | Percent inhibition (MLV pseudotype infectivity) [2] | Inhibition of HIV-1 infectivity (HIV-1 [3]) | Effect on HIV-1 load in AIDS patients (HIV-1 [4]) | Percent Inhibition (H77-E1E2 HCV pseudotype infectivity) [1]
GIKYFSMVGNWAKVLVVL [Peptide 77] | 56,425 luciferase units (lumens) | 321,076 luciferase units (lumens) | 26.89% |  |  | 
YPGHITGHRMANMMMNW [Peptide 70] | 15,717 luciferase units (lumens) | 553,120 luciferase units (lumens) | −25.95% |  |  | 
PRHHWTTQDCNCSIYPGH [Peptide 68] | 79,297 luciferase units (lumens) | 498,991 luciferase units (lumens) | −13.62% |  |  | 
GQLFTFSPRHHWTTQDCN [Peptide 67] | 64,601 luciferase units (lumens) | 357,577 luciferase units (lumens) | 28.58% |  |  | 
LVVLLLFAGVDAETHVTG [Peptide 79] | 101,702 luciferase units (lumens) | 740,034 luciferase units (lumens) | −68.51% |  |  | 
LLRIPQAIMDMIAGAHWG [Peptide 74] | 32,888 luciferase units (lumens) | 467,876 luciferase units (lumens) | −6.54% |  |  | 
enfuvirtide |  |  |  | inhibit HIV-1 infectivity | substantially reduce HIV-1 load | 
GCVPCVREGNASRCWVAV [Peptide 58] | 118,767 luciferase units (lumens) | 329,895 luciferase units (lumens) | 24.98% |  |  | 
GSATLCSALYVGDLCGSV [Peptide 64] | 113,108 luciferase units (lumens) | 316,948 luciferase units (lumens) | 27.83% |  |  | 
AALVVAQLLRIPQAIMDM [Peptide 73] | 100,666 luciferase units (lumens) | 433,001 luciferase units (lumens) | 1.40% |  |  | 
QDCNCSIYPGHITGHRMA [Peptide 69] | 196,922 luciferase units (lumens) | 354,027 luciferase units (lumens) | 19.39% |  |  | 
SIVYEAADAILHTPGCVP [Peptide 56] | 65,612 luciferase units (lumens) | 433,459 luciferase units (lumens) | 1.30% |  |  | 
IMDMIAGAHWGVLAGIKY [Peptide 75] | 113,359 luciferase units (lumens) | 420,026 luciferase units (lumens) | 4.36% |  |  | 
MMNWSPTAALVVAQLLRI [Peptide 72] | 75,763 luciferase units (lumens) | 392,680 luciferase units (lumens) | 10.58% |  |  | 
SAYQVRNSSGLYHVTNDC [Peptide 53] | 113,469 luciferase units (lumens) | 443,528 luciferase units (lumens) | −9.95% |  |  | 
AHWGVLAGIKYFSMVGNW [Peptide 76] | 96,283 luciferase units (lumens) | 473,757 luciferase units (lumens) | −7.88% |  |  | 
WVAVTPTVATRDGKLPTT [Peptide 59] | 91,794 luciferase units (lumens) | 446,063 luciferase units (lumens) | −1.57% |  |  | 19.29%
VATRDGKLPTTQLRRHID [Peptide 61] | 148,796 luciferase units (lumens) | 423,925 luciferase units (lumens) | 3.47% |  |  | 
SSGLYHVTNDCPNSSIVY [Peptide 54] | 74 luciferase units (lumens) | 280,113 luciferase units (lumens) | 36.22% |  |  | 
VGNWAKVLVVLLLFAGVD [Peptide 78] | 137,700 luciferase units (lumens) | 402,953 luciferase units (lumens) | 8.24% |  |  | 
RHIDLLVGSATLCSALYV [Peptide 63] | 57,915 luciferase units (lumens) | 438,440 luciferase units (lumens) | 0.16% |  |  | 
ALYVGDLCGSVFLVGQLF [Peptide 65] | 87,726 luciferase units (lumens) | 491,789 luciferase units (lumens) | −11.98% |  |  | 
WVAVTPTVATRDGKLPTT [Peptide 60] | 98,766 luciferase units (lumens) | 340,384 luciferase units (lumens) | 22.49% |  |  | 13.16%
DAILHTPGCVPCVREGNA [Peptide 57] | 169,860 luciferase units (lumens) | 331,852 luciferase units (lumens) | 24.44% |  |  | 
LPTTQLRRHIDLLVGSAT [Peptide 62] | 115,966 luciferase units (lumens) | 415,014 luciferase units (lumens) | 5.50% |  |  | 
HRMANMMMNWSPTAALV [Peptide 71] | 83,489 luciferase units (lumens) | 533,765 luciferase units (lumens) | −21.54% |  |  | 
TNDCPNSSVVYEAADAIL [Peptide 55] | 112,470 luciferase units (lumens) | 447,957 luciferase units (lumens) | −2.00% |  |  | 
CGSVFLVGQLFTFSPRHH [Peptide 66] | 23,387 luciferase units (lumens) | 189,683 luciferase units (lumens) | 56.81% |  |  | 
SCLTVPASAYQVRNSSGL [Peptide 52] | 133,259 luciferase units (lumens) | 533,179 luciferase units (lumens) | −21.4% |  |  | 
